From article PMC4467461, “Small-molecule activation of SERCA2a SUMOylation for the treatment of heart failure” (Nature Communications, 2015)
“Also recorded” adds a separate entry of the source.

Experiments:
[1] = biological target: T1, ubiquitin-activating enzyme (Ub E1) (Homo sapiens, UniProt P22314); assay: Ubiquitin-activating E1 enzyme activity (ATP hydrolysis and in vitro conjugation assays); assay type: biochemical; details: at concentrations up to 100 μM
T1 sequence (P22314 1-1058): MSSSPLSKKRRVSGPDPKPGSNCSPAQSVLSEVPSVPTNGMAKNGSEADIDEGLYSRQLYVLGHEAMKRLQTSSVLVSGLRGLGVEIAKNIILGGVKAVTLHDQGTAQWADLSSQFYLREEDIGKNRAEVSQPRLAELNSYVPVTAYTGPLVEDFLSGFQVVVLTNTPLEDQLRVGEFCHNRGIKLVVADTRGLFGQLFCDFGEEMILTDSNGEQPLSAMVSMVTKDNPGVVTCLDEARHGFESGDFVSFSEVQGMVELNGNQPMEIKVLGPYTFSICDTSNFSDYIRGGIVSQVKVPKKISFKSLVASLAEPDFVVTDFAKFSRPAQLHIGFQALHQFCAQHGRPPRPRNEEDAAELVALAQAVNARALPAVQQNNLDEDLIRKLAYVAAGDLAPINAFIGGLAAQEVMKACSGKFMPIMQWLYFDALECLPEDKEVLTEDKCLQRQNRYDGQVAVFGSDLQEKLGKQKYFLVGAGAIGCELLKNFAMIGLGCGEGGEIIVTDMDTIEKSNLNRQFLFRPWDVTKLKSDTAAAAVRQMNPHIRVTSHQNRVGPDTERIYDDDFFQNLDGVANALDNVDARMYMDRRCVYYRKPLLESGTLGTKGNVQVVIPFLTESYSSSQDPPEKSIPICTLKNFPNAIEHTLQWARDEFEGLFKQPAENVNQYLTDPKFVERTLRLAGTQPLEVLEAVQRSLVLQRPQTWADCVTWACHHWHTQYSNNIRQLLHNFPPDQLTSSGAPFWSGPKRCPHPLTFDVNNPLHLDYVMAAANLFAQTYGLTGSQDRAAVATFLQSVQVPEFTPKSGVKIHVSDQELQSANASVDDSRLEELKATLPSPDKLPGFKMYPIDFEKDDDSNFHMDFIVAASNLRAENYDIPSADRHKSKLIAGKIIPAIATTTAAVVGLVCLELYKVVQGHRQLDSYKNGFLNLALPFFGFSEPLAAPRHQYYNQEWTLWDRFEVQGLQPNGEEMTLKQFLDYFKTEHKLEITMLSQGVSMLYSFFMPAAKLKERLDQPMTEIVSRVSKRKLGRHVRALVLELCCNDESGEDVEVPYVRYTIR
Procedure: Biochemical activity of SUMO-specific E1 enzymes was examined by ATPase assay and in-vitro gel-shifting assays. ATP hydrolysis activity of E1 enzymes was measured by using pyrophosphate assay kit (Abcam Inc.). E1 (0.05 μM), 0.25 μM E2, 12.5 μM SUMO-1 and 1 mM ATP with N106 or DMSO were used for the assays. The E1-thioester formation was analysed in reaction mixtures containing 0.05 μM E1, 12.5 μM SUMO-1 and 1 mM ATP with N106 or DMSO. The E1-dependent E2-SUMO-1 thioester formation was assessed using reaction containing 0.05 μM E1, 0.25 μM E2, 12.5 μM SUMO-1 and 1 mM ATP with N106 or DMSO. Assays were incubated at 37 °C for 30 min and were mixed with non-reducing sample buffer, and analysed in non-reducing condition. Western blotting using antibodies against SAE2 and Ubc9 detected the SUMO conjugations. […]
Supplementary Figure 5. […] Ubiquitin activating E1 enzyme activity was determined by ATP hydrolysis and in vitro conjugation assays. […] Inorganic pyrophosphate resulting from ATP hydrolysis in E1-catalazed ubiquitin activity was quantified with the use of a fluorogenic pyrophosphate assay kit. […] Thioester bond formation between ubiquitin specific E1 enzyme and ubiquitin were detected by Western blot analysis. […] E1-dependent thioester bond formation between E2 and ubiquitin was detected by Western blotting with anti-ubiquitin antibody. […]

[2] = test system: NCI-60 human tumour cell lines; assay: NCI-60 human tumour cell screen (sulforhodamine B); assay type: cell-based; details: single dose 10^-5 M, 48 hours, 60 tumor cell panels incl. MDA-MB-231
From the text: One concern about an agent that enhances SUMOylation is off-target effects including tumour growth. Several studies reported direct involvement of SUMO E1 in the setting of cancer. In patients with hepatocellular carcinoma, UBA2 gene expression was higher and directly correlated with lower survival rate[25]. SUMO E1 was also reported to be an important factor for myc-dependent tumour growth in mice and there is a correlation between low SUMO E1 gene expression and longer metastasis-free survival rate of patients with myc-high breast cancers. Thus, we sought to determine whether N106 would have an effect on cancer cell growth. We performed the NCI-60 human tumour cell screen used by the National Cancer Institute’s Developmental Therapeutics Program (http://dtp.cancer.gov/docs/compare/compare.html). The NCI-60 set includes leukemia, lymphomas and carcinomas of ovarian, renal, breast, prostate, colon, lung and central nervous system origin.
Supplementary Figure 12. NCI 60 cell screening. N106 submitted to the NCI 60 cell screen
has been tested initially at a single high dose of 10^-5 M in 60 different tumor cell panels. 48 hours
after compound treatment, cell density and proliferation was determined by sulforhodamine B

in-vitro activity of Ub E1 (ubiquitin activation, conjugation of ubiquitin to Ub E1, Ub E1-dependent conjugation to E2 cdc32) [1]: did not significantly stimulate
SMILES: COc1ccc(-c2nnc(Nc3nc4c(OC)cccc4s3)o2)cc1 [Compound N106, N-(4-methoxybenzo[d]thiazol-2-yl)-5-(4-methoxyphenyl)-1,3,4-oxadiazol-2-amine]
tumour cell growth and proliferation [2]: has not shown any significant oncogenic activity; also recorded: did not induce any tumour cell growth and proliferation
